Source: patent US9873724B2, “Pro-angiogenic peptides and peptide conjugates” (Yissum Research Development Company of the Hebrew …, priority 2013, dated 2018)
Several values for one entry are separate records, joined by “and”; a condition that tells them apart may be missing. Equal entries are not always repeated. Square brackets hold non-standard residues; d marks the D form. * marks the point of attachment. Myristoyl = CCCCCCCCCCCCCC(=O)*; Nle = CCCC[C@H](N)C(=O)O

Test system: Mice/Balb/c, hind limb ischemia model
Assay: Mouse hind limb ischemia/angiogenesis model
Type: in vivo
Excerpt: The object of this study was to determine whether administration of the test items, peptides AB-017 (SEQ ID NO: 12) and 725-106 (positive control, SEQ ID NO: 2) can enhance angiogenesis, subsequently inducing clinical and motor function improvement in a hind limb ischemia model. The principle of the test is based on changes in perfusion rate, clinical signs and histological parameters (necrosis) following administration of the test compounds.
Each tested group included 4-7 mice per group. Intraperitoneal (i.p) injection is the preferred route of administration of the test items in this model and DMSO/PEG is used as vehicle to prepare the test item solution.
Tested peptides were dissolved in 100% DMSO. Thereafter Polyethylene glycol (PEG) 400 is added to the solution. Sterile water was used to dilute to a final concentration of 0.5% DMSO/10% PEG 400/H2O to result 2 mg/ml. The solution is prepared and divided into marked aliquots and stored at −70° C.
Species/Strain: Mice/Balb/c male˜8 weeks
Animals were housed under standard laboratory conditions, air conditioned and filtered (HEPA F6/6) with adequate fresh air supply (31 air changes/hour). Animals were kept in a climate controlled environment. Temperatures range is between 20-24° C. and RH is between 30-70% with 12 hours light and 12 hours dark cycle. Animals were housed in polyethylene cages (7/cage) measuring 35×30×15 cm, with stainless steel top grill facilitating pelleted food and drinking water in plastic bottle; bedding: steam sterilized clean paddy husk. Bedding material is changed along with the cage at least twice a week. Diet: Animals are fed ad libitum a commercial rodent diet (Teklad Certified Global 18% Protein Diet cat #: 106S8216). Animals have free access to drinking water obtained from the municipality supply. Surgical Procedure: Anesthesia: Isoflurane 1.5-3% in a mixture of O2/N2O, under spontaneous respiration. All four limbs of the animal were taped down in order to facilitate the animal for surgery. Both hind legs of the animals are shaved and disinfected. On the operated leg, the right leg in all animals, an incision was made from the inguinal area to the proximity of the knee. The femoral vein/artery/nerve were exposed. The artery is dissected free from the vein, nerve and surrounding fascia. Distal to its bifurcation with the profound femoral artery, using 6-0 silk suture the artery is ligated twice, and thereafter transected between these two points (see prox-A-group model appendix I). The surgical wound is closed with 6-0 silk and the mouse is returned to its cage. The left leg is untreated control in all animals. Exclusion criteria: Only mice, whose mean flux measurement post surgery is […] and ≦50% of the pre surgical measurement, are incorporated into the study. Mice whose mean flux measurement post surgery out of this range were excluded from the study.
[formula] Drug administration: All animals were dosed by IP administration at a dose volume of 10 ml/kg.
Tests and Evaluation: Body weight: Body weights were measured prior to surgery, prior to each dosing, and prior to necropsy. Blood flow measurement: Using a Laser Doppler apparatus (Perimed PeriScan PIM II System, Technical manual available at test facility) Blood flow was measured (operated leg & control leg) while the legs are in their natural resting position at the following time points: Before surgery (after shaving) & Post surgery (Day 0); Day 1; Day 8; Day 15; Day 22; and Day 29. Each time point for each mouse consists of three measurements. Blood flow was measured, additionally, in first 10 animals at Pre before shaving. […]

Myr-Gly-Nle-Arg-Pro-Tyr-NH2 (Myristoyl-G[Nle]RPY-NH2; SMILES CCCCCCCCCCCCCC(=O)NCC(=O)N[C@@H](CCCC)C(=O)N[C@@H](CCCNC(=N)N)C(=O)N1CCC[C@H]1C(=O)N[C@@H](Cc1ccc(O)cc1)C(N)=O) [AB-017]
perfusion, leg function and leg necrosis (in words) (20 mg/kg IP twice weekly for 4 weeks, vs vehicle control and 725-106): significant improvement of the ischemic leg
Functional evaluation at day 15 (individual mouse) (20 mg/kg IP twice weekly, function score 0 (flexing the toes) to 3 (dragging of foot), one value per mouse, listed as AB-107): 3.0 (2×) and 2.0 and 0.0 (4×)
Hind limb ischemia evaluation at day 15, Average (20 mg/kg IP twice weekly, group average of ischemic score): 0.7
Hind limb ischemia evaluation at day 15 (individual mouse) (20 mg/kg IP twice weekly, ischemic score 0 (absence of necrosis) to 4 (total hind-limb loss), one value per mouse, listed as AB-107): 2.0 (2×) and 0.0 (4×) and 1.0
